Experimental data: the supplement of paper PMC8967900

Columns and labels:
Experiment in all cases: selective drug sensitivity score (sDSS, relative to normal bone marrow) (sDSS (score)); higher = more potent and effective on the cell line relative to normal bone marrow cells
Conditions in all cases: 72 h
KASUMI-9 = tested on: KASUMI-9
MOLT-14 = tested on: MOLT-14
380 = tested on: 380
COG-LL-402h = tested on: COG-LL-402h
RCH-ACV = tested on: RCH-ACV
REH = tested on: REH
HPB-ALL = tested on: HPB-ALL
KASUMI-2 = tested on: KASUMI-2
COG-LL-394h = tested on: COG-LL-394h
DND-41 = tested on: DND-41
CCRF-CEM = tested on: CCRF-CEM
ALL-SIL = tested on: ALL-SIL
MOLT-16 = tested on: MOLT-16
NALM-16 = tested on: NALM-16
KASUMI-10 = tested on: KASUMI-10
COG-LL-355h = tested on: COG-LL-355h
697 = tested on: 697
NALM-6 = tested on: NALM-6
MHH-CALL-4 = tested on: MHH-CALL-4
RPMI-8402 = tested on: RPMI-8402
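Note: ALL cell lines in 384-well plates, five doses spanning 10,000-fold, each plate scaled between vehicle and 100 µmol/L benzalkonium chloride controls, sDSS an adapted area-under-curve metric.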

Row | Compound | selective drug sensitivity score (KASUMI-9) | selective drug sensitivity score (MOLT-14) | selective drug sensitivity score 380 | selective drug sensitivity score (COG-LL-402h) | selective drug sensitivity score (RCH-ACV) | selective drug sensitivity score (REH) | selective drug sensitivity score (HPB-ALL) | selective drug sensitivity score (KASUMI-2) | selective drug sensitivity score (COG-LL-394h) | selective drug sensitivity score (DND-41) | selective drug sensitivity score (CCRF-CEM) | selective drug sensitivity score (ALL-SIL) | selective drug sensitivity score (MOLT-16) | selective drug sensitivity score (NALM-16) | selective drug sensitivity score (KASUMI-10) | selective drug sensitivity score (COG-LL-355h) | selective drug sensitivity score 697 | selective drug sensitivity score (NALM-6) | selective drug sensitivity score (MHH-CALL-4) | selective drug sensitivity score (RPMI-8402)
1 | COc1cc(CCc2cc(NC(=O)c3ccc(N4CC(C)NC(C)C4)cc3)n[nH]2)cc(OC)c1 (stereo not given) [AZD4547] (top concentration 1000 nM) | -0.14 | -0.14 | -0.14 | -0.14 | 3.46 | -0.14 | -0.14 | 0.26 | 0.16 | 1.66 | -0.14 | 0.56 | -0.14 | 0.56 | 1.36 | -0.14 | -0.04 | -0.14 | -0.14 | -0.14
2 | CN(C)C(=O)c1ccc(S(=O)(=O)c2ccc(NC(=O)[C@@](C)(O)C(F)(F)F)c(Cl)c2)cc1 [AZD7545] (top concentration 10000 nM) | -0.2 | 1 | -0.2 | -0.2 | 3 | 4.4 | 0.3 | 5.3 | 4.1 | 0.1 | 0 | 3.4 | 5.3 | 0.3 | -0.2 | -0.2 | 4.3 | 3.7 | -0.2 | 5.7
3 | COc1cc(C)c(/C=C/C(C)=C/C=C/C(C)=C/C(=O)O)c(C)c1C [Acitretin] (top concentration 10000 nM) | 2.9 | -1.4 | 15.2 | -0.1 | -1.6 | -1.6 | -0.1 | -1.6 | -1.6 | -1.6 | -1 | -1.6 | -0.4 | -1.6 | -1.6 | 2.3 | 0.6 | -1.5 | -1.6 | -1.6
4 | CCC1(c2ccc(N)cc2)CCC(=O)NC1=O (stereo not given) [Aminoglutethimide] (top concentration 10000 nM) | 0.6 | 0 | 0 | 0 | 0 | 0.6 | 0.4 | 0 | 0 | 0 | 0 | 0 | 0 | 0 | 0 | 0.6 | 0 | 0 | 0.5 | 0
5 | CNC(=O)c1ccc(N2C(=S)N(c3cnc(C#N)c(C(F)(F)F)c3)C(=O)C23CCC3)cc1F [Apalutamide] (top concentration 10000 nM) | 0 | 0 | 0 | 0.2 | 0 | 0 | 0 | 0 | 0 | 0 | 0 | 0 | 0 | 0 | 0 | 0 | 0 | 0 | 0 | 0
6 | N#CC1(c2ccc(NC(=O)c3cccnc3NCc3ccncc3)cc2)CCCC1 [Apatinib] (top concentration 10000 nM) | 0 | 0 | 0 | 0 | 1.1 | 0.1 | 1 | 2.1 | 0 | 1 | 0 | 0 | 0 | 0 | 0 | 0 | 0 | 0.4 | 0 | 0.1
7 | Cc1nc2cccc(N)c2c(=O)n1C1CCC(=O)NC1=O (stereo not given) [Avadomide (CC122)] (top concentration 10000 nM) | 10.7 | 0 | 0 | 0.2 | 10.5 | 3.6 | 0 | 0 | 0 | 0 | 0.9 | 0 | 0 | 0 | 2.3 | 2.6 | 2.7 | 0 | 3.9 | 0
8 | Nc1nc(Nc2ccc3c(c2)CC[C@@H](N2CCCC2)CC3)nn1-c1cc2c(nn1)-c1ccccc1CCC2 [BGB324] (top concentration 10000 nM) | 5.22 | 1.62 | -0.88 | 2.32 | 5.02 | 0.92 | -2.88 | -1.58 | 2.82 | 1.32 | 1.92 | 3.12 | 2.92 | -1.58 | 0.32 | 3.82 | 3.52 | 1.92 | -2.88 | 2.92
9 | CC1(C)C(C(=O)Nc2ccc(S(=O)(=O)c3ccc(NC(=O)C4C(C)(C)C4(C)C)cc3)cc2)C1(C)C [BRD7116] (top concentration 10000 nM) | 4.46 | 2.16 | -0.24 | -0.24 | -0.14 | 2.86 | 3.26 | -0.24 | 3.16 | -0.24 | 1.16 | -0.24 | 1.26 | 1.06 | 0.86 | -0.24 | 0.56 | 1.96 | -0.24 | 0.96
10 | CCS(=O)(=O)N1CC(CC#N)(n2cc(-c3ncnc4[nH]ccc34)cn2)C1 [Baricitinib] (top concentration 2500 nM) | -1.94 | -1.94 | -1.94 | -1.94 | -1.94 | -1.94 | -1.94 | -1.94 | -1.94 | 3.66 | -1.94 | 4.66 | -1.94 | -1.94 | -1.94 | -1.94 | -1.94 | -1.94 | -1.24 | -1.94
